What all share (type): cell-based
Assay [1] deals with cancer cell lines to human breast, prostate, ovarian, pancreatic and cervical cancers. Nature of the assay: Radiosensitisation of cancer cell lines on culture plates (cell viability by CellTiter, apoptosis by Hoechst 33342 dye). As to conditions: pre-treatment (1 day and 8 hour) and sequential/post-treatment (−30 min/+4 h) regimes, at 2 and 10 μM. As for the experimental part: The effect of a selection of isoflavonoid compounds on various cancer cell lines subjected to radiotherapy was assessed on culture plates. Cell viability was determined using CellTiter®. Apoptosis was evaluated using Hoechst 33342 dye.
32 and 39 (at 2 and 10 μM).

Assay [2] relates to cancer cells. Nature of the assay: Synergistic interaction with death receptor ligands and growth receptor inhibitors. As to conditions: growth receptor inhibitors eg. of EGF, PDGF, FGF, TNF and IGF receptors.
Assay [3] relates to cancer cells. Nature of the assay: Synergy with the chemotherapeutics cisplatin and gemcitabine.

Regarding `Oc1ccc(C2=Cc3ccc(O)cc3OC2)cc1` [Cpd. 12, dehydroequol], the “radiosensitisation of cancer cell lines subjected to radiotherapy” value in assay [1] was “radiosensitised”. For the same compound, in assay [2], the “synergistic interaction with interferon-gamma, Fas ligand, TRAIL ligand, growth receptor inhibitors” value is reported as “synergistic interaction”. Moreover, the “synergy with the effect of chemotherapeutics such as cisplatin and gemcitabine” value in assay [3] was “synergise”.
With `COc1ccc(C2c3ccc(O)cc3OCC2c2ccc(O)cc2)cc1` (stereo not shown) [compound 32], the “radiosensitisation of cancer cell lines subjected to radiotherapy” value in assay [1] is recorded as “radiosensitised”. Also, the “synergistic interaction with interferon-gamma, Fas ligand, TRAIL ligand, growth receptor inhibitors” value in assay [2] is given as “synergistic interaction”.
The like results for `COc1ccc(C2c3ccc(O)c(C)c3OCC2c2ccc(O)cc2)cc1` (stereo not shown) [compound 39] were, in that order, “radiosensitised” and “synergistic interaction”.

These data come from patent publication US20060167037A1, “Combinational radiotherapy and chemotherapy compositions and methods” (priority 2003, published 2006).
